Measured values as given in patent US11555012B2 (Nimbus Artemis, Inc., priority 2018, dated 2023).

Target: ACL (Homo sapiens (Human), UniProt P53396)
Assay: ADP-Glo Assay
Protocol: Compounds of the present invention were evaluated in an ADP-GLO assay as follows:
b) Add 0.1 μL diluted cpd solution to assay plate, each dose with 2 replicates c) Centrifuge 1000 RPM for 1 min d) Add 5 μL ACL working solution to 384-well assay plate, centrifuge 1000 RPM for 1 min e) Incubate at 25° C. for 15 min f) Add 5 μL substrate working solution to initiate reaction
h) Reference final conc: 30 uM starting Conc, 3× dilution, 11+0 points. Test cpd conc: 30/100 uM starting Conc, 3× dilution, 11+0 points. i) Incubate at 25° C. for 60 min j) Add 10 μL ADP Glo reagent, centrifuge 1000 RPM for 1 min k) Incubate at 25° C. for 40 min l) Add 20 μL kinase detection reagent, centrifuge 1000 RPM for 1 min m) Incubate at 25° C. for 40 min n) Read on Envision for US LUM as RLU

Chain of ACL (P53396 other isoform, or with tags, fused parts or gaps isoform P53396-2): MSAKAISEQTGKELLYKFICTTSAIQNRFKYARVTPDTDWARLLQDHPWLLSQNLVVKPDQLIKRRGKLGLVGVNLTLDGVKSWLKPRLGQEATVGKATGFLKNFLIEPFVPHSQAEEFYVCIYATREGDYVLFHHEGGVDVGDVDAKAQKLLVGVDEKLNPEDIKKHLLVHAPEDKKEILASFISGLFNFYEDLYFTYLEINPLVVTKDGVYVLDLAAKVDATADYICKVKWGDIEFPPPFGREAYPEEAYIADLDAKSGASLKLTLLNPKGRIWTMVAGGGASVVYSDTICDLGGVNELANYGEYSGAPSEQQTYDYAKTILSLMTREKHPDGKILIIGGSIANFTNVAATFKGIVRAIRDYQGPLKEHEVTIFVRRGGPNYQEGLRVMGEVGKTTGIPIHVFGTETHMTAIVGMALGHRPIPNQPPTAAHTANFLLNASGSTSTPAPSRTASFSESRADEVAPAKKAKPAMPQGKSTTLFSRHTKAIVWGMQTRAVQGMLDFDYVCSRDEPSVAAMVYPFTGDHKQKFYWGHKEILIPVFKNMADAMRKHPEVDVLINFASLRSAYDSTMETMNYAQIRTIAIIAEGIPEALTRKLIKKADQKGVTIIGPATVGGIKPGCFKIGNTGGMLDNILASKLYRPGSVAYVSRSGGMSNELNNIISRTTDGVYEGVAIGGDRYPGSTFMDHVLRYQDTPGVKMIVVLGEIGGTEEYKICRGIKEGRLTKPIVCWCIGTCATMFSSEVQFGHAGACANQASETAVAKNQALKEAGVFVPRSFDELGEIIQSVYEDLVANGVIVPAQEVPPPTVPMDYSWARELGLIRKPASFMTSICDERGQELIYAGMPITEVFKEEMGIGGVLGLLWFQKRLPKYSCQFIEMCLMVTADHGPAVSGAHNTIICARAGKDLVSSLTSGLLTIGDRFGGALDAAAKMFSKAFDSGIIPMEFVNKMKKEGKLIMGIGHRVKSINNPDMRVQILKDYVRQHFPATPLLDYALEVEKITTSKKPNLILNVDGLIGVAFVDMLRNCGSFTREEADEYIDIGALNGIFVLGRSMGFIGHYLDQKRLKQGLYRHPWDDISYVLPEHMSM

| SMILES | IC50 |
| --- | --- |
| O=C(O)c1c(NS(=O)(=O)c2cc(Cl)cc(Cl)c2)sc2c1CCC2 [I-341, 2-((3,5-dichlorophenyl)sulfonamido)-5,6-dihydro-4H-cyclopenta[b]thiophene-3-carboxylic acid] | 0.5 to 20 µM |
| COc1cc(-c2ccccc2)ccc1NS(=O)(=O)c1cc(Cl)cc(Cl)c1C [I-403, 3,5-dichloro-N-(3-methoxy-[1,1′-biphenyl]-4-yl)-2-methylbenzenesulfonamide] | > 20 µM |
| Cc1ccc(C(=O)O)c(NS(=O)(=O)c2cc(Cl)cc(Cl)c2)c1 [I-321, 2-((3,5-dichlorophenyl)sulfonamido)-4-methylbenzoic Acid] | 0.5 to 20 µM |
| O=C(O)c1cc(NC(=O)c2cc(F)cc3nc[nH]c23)ccc1Cl [I-535, 2-chloro-5-(5-fluoro-1H-benzo[d]imidazole-7-carboxamido)benzoic acid] | > 20 µM |
| CC(C)(C)OC(=O)COc1ccc(-c2ccccc2)cc1NS(=O)(=O)c1cc(Cl)cc(Cl)c1O [I-214, tert-butyl 2-[[3-(3,5-dichloro-2-hydroxybenzenesulfonamido)-[1,1-biphenyl]-4-yl]oxy]acetate] | 0.5 to 20 µM |
| O=S(=O)(Nc1cnn(-c2ccccc2)c1)c1cc(Cl)cc(Cl)c1O [I-170] | 0.5 to 20 µM |
| O=C(c1cc(Cl)c(O)c(S(=O)(=O)Nc2ccccc2F)c1)N1CCC1 [I-268, 5-(azetidine-1-carbonyl)-3-chloro-N-(2-fluorophenyl)-2-hydroxybenzene-1-sulfonamide] | 0.5 to 20 µM |
| O=C(c1cc(Cl)c(O)c(SCc2cc(-c3ccccc3)c(F)cc2F)c1)N1CCCC1 [I-205, (3-chloro-5-(((4,6-difluoro-[1,1′-biphenyl]-3-yl)methyl)thio)-4-hydroxyphenyl)(pyrrolidin-1-yl)methanone] | 0.5 to 20 µM |
| O=C(Nc1ccccc1)c1ccc(F)c(NS(=O)(=O)c2cc(Cl)cc(Cl)c2O)c1 [I-61, 3-((3,5-dichloro-2-hydroxyphenyl)sulfonamido)-4-fluoro-N-phenylbenzamide] | 0.5 to 20 µM |
| O=C(O)c1cc(Cl)c(O)c(S(=O)(=O)Nc2cc(-c3ccccc3)ccn2)c1 [I-536] | > 20 µM |
| COC(=O)c1cccc(S(=O)(=O)Nc2cc(-c3ccccc3)c(F)cc2F)c1 [I-191, methyl 3-([4,6-difluoro-[1,1-biphenyl]-3-yl]sulfamoyl)benzoate] | 0.5 to 20 µM |
| O=C(O)c1ccc(-c2ccccc2)cc1NS(=O)(=O)c1ccccc1 [I-225, 3-(phenylsulfonamido)-[1,1′-biphenyl]-4-carboxylic Acid] | 0.5 to 20 µM |
| COc1ccc(CN(C)S(=O)(=O)c2cc(Cl)cc(Cl)c2O)cc1 [I-166] | 0.5 to 20 µM |
| COc1ccc(C(=O)OC2CC2)cc1NS(=O)(=O)c1cc(Cl)cc(Cl)c1O [I-411, cyclopropyl 3-((3,5-dichloro-2-hydroxyphenyl)sulfonamido)-4-methoxybenzoate] | > 20 µM |
| COc1ccc(-c2ccccc2)cc1NS(=O)(=O)c1cc(C(=O)N(C)C)cc(Cl)c1OC [I-434, 3-chloro-4-methoxy-5-(N-(4-methoxy-[1,1′-biphenyl]-3-yl)sulfamoyl)-N,N-dimethylbenzamide] | > 20 µM |
| O=C(O)c1ccc(-c2ccccc2)cc1NS(=O)(=O)CC1CCC1 [I-307, 3-((cyclobutylmethyl)sulfonamido)-[1,1′-biphenyl]-4-carboxylic Acid] | 0.5 to 20 µM |
| COc1ccc(-c2ccccc2)cc1NS(=O)(=O)c1cc(Cl)cc(C(=O)O)c1OC [I-430, 5-chloro-2-methoxy-3-(N-(4-methoxy-[1,1′-biphenyl]-3-yl)sulfamoyl)benzoic Acid] | > 20 µM |
| CC(C)(C)C(=O)Oc1c(Cl)cc(C(=O)N2CCC2)cc1S(=O)(=O)Nc1cc(-c2ccccc2)c(F)cc1F [I-210, 4-(azetidine-1-carbonyl)-2-chloro-6-(N-(4,6-difluoro-[1,1′-biphenyl]-3-yl)sulfamoyl)phenyl Pivalate] | 0.5 to 20 µM |
| COc1ccc(-c2ccccc2)cc1NS(=O)(=O)c1cc(CC(=O)O)cc(Cl)c1O [I-68, 2-[3-chloro-4-hydroxy-5-[(2-methoxy-5-phenylphenyl)sulfamoyl]phenyl]acetic Acid] | 0.5 to 20 µM |
| Cc1nn(C)c(Cl)c1S(=O)(=O)Nc1cc(-c2ccccc2)ccc1C(=O)O [I-345, 3-((5-chloro-1,3-dimethyl-1H-pyrazole)-4-sulfonamido)-[1,1′-biphenyl]-4-carboxylic Acid] | 0.5 to 20 µM |
| CC#Cc1cc(Cl)ccc1N(C)S(=O)(=O)c1cc(Br)cc(Cl)c1O [I-516, 5-bromo-3-chloro-N-(4-chloro-2-(prop-1-yn-1-yl)phenyl)-2-hydroxy-N-methylbenzenesulfonamide] | 0.5 to 20 µM |
| O=S(=O)(Nc1cc(F)ccc1F)c1cc(Cl)cc(Cl)c1O [I-69, 3,5-dichloro-N-(2,5-difluorophenyl)-2-hydroxybenzene-1-sulfonamide] | 0.5 to 20 µM |
| COc1ccc(-c2ccccc2)cc1N(C)S(=O)(=O)c1cc(C(=O)O)cc(Cl)c1O [I-426, 3-chloro-4-hydroxy-5-[(2-methoxy-5-phenylphenyl)(methyl)sulfamoyl]benzoic acid] | > 20 µM |
| COc1ccc(Br)cc1NS(=O)(=O)c1cc(Cl)cc(Cl)c1O [I-4, N-(5-bromo-2-methoxyphenyl)-3,5-dichloro-2-Hydroxybenzenesulfonamide] | 0.5 to 20 µM |
| O=C(O)c1ccc(-c2ccccc2)cc1NS(=O)(=O)c1cc(Cl)cc(-c2nccs2)c1 [I-234, 3-((3-chloro-5-(thiazol-2-yl)phenyl)sulfonamido)-[1,1′-biphenyl]-4-carboxylic Acid] | 0.5 to 20 µM |
| O=S(=O)(Nc1cc(N2CCNCC2)c(F)cc1F)c1cc(Cl)cc(Cl)c1O [I-395, 3,5-dichloro-N-(2,4-difluoro-5-(piperazin-1-yl)phenyl)-2-hydroxybenzenesulfonamide] | > 20 µM |

Second part, the compound after the results:

| IC50 | SMILES |
| --- | --- |
| > 20 µM | O=S(=O)(Nc1cc(-c2ccccc2)ccc1F)c1cc(-c2nn[nH]n2)ccc1F [I-424, 2-fluoro-N-(2-fluoro-5-phenylphenyl)-5-(2H-1,2,3,4-tetrazol-5-yl)benzene-1-sulfonamide] |
| 0.5 to 20 µM | O=S(=O)(Nc1cc(-c2ccccc2)c(F)cc1F)c1cc(Cl)cc(-c2nn[nH]n2)c1 [I-72, 3-chloro-N-(2,4-difluoro-5-phenylphenyl)-5-(2H-1,2,3,4-tetrazol-5-yl)benzene-1-sulfonamide] |
| > 20 µM | O=S(=O)(Nc1ccc(-c2ccccc2)cc1F)c1cccc2ncoc12 [I-393, N-(3-fluoro-[1,1′-biphenyl]-4-yl)benzo[d] oxazole-7-sulfonamide] |
| 0.5 to 20 µM | O=S(=O)(Nc1cc(-c2ccccc2)c(F)cc1F)c1cccc(Cl)c1Cl [I-190, 2,3-dichloro-N-[4,6-difluoro-[1,1-biphenyl]-3-yl]benzene-1-sulfonamide] |
| > 20 µM | Cn1cc(Cl)cc(S(=O)(=O)Nc2cc(-c3ccccc3)ccc2F)c1=O [I-415, 5-chloro-N-(2-fluoro-5-phenylphenyl)-1-methyl-2-oxo-1,2-dihydropyridine-3-sulfonamide] |
| > 20 µM | COc1ccc(-c2ccccc2)cc1NS(=O)(=O)c1cc(C(N)=O)cc(Cl)c1OC [I-432, 3-chloro-4-methoxy-5-(N-(4-methoxy-[1,1′-biphenyl]-3-yl)sulfamoyl)benzamide] |
| > 20 µM | CCS(=O)(=O)Nc1ccc(S(=O)(=O)Nc2cc(-c3ccccc3)ccc2F)c(OC)c1 [I-523, 4-(ethylsulfonamido)-N-(4-fluoro-[1,1′-biphenyl]-3-yl)-2-methoxybenzenesulfonamide] |
| 0.5 to 20 µM | O=S(=O)(NCc1cc(-c2ccccc2)ccc1F)c1cc(Cl)cc(Cl)c1O [I-125, 3,5-dichloro-N-((4-fluoro-[1,1′-biphenyl]-3-yl)methyl)-2-hydroxybenzenesulfonamide] |
| 0.5 to 20 µM | O=C(O)c1ccc(-c2ccccc2)cc1NS(=O)(=O)c1cccnc1Cl [I-300] |
| 0.5 to 20 µM | O=S(=O)(Nc1cc(-c2ccccc2)ccc1F)c1cc(Cl)cc2ccoc12 [I-223, 5-chloro-N-[4-fluoro-[1,1-biphenyl]-3-yl]-1-benzofuran-7-sulfonamide] |
| 0.5 to 20 µM | O=S(=O)(Nc1cc(-c2ccccc2)c(F)cc1F)c1cccc(-c2nn[nH]n2)c1 [I-96, N-(2,4-difluoro-5-phenylphenyl)-3-(2H-1,2,3,4-tetrazol-5-yl)benzene-1-sulfonamide] |
| 0.5 to 20 µM | O=C(O)c1cc(Cl)c(Cl)c(S(=O)(=O)Nc2cc(-c3ccccc3)ccc2F)c1 [I-256] |
| > 20 µM | N#Cc1cc(S(=O)(=O)Nc2cc(-c3ccccc3)c(F)cc2F)ccc1F [I-381, 3-cyano-N-(4,6-difluoro-[1,1′-biphenyl]-3-yl)-4-fluorobenzenesulfonamide] |
| 0.5 to 20 µM | O=S(=O)(Nc1cc(-c2ccccc2)ccc1O)c1cccc(-c2nn[nH]n2)c1 [I-25, N-(2-hydroxy-5-phenylphenyl)-3-(2H-1,2,3,4-tetrazol-5-yl) benzene-1-sulfonamide] |
| > 20 µM | O=S(=O)(Nc1cc(-c2ccccc2)c(F)cc1F)c1cccc2nsnc12 [I-390, N-(4,6-difluoro-[1,1 biphenyl]-3-yl)benzo[c][1,2,5]thiadiazole-4-sulfonamide] |
| > 20 µM | COc1ccc(Br)cc1S(=O)(=O)Nc1cc(-c2ccccc2)c(F)cc1F [I-380, 5-bromo-N-[4,6-difluoro-[1,1-bipheny1]-3-yl]-2-methoxybenzene-1-sulfonamide] |
| 0.5 to 20 µM | O=S(=O)(Nc1cc(-c2ccccc2)ccc1F)c1cc(Cl)cc(Cl)c1Oc1nccs1 [I-97, 3,5-dichloro-N-(2-fluoro-5-phenylphenyl)-2-(1,3-thiazol-2-yloxy)benzene-1-sulfonamide] |
| 0.5 to 20 µM | COc1ccc(C)cc1S(=O)(=O)Nc1cc(-c2ccccc2)ccc1C(=O)O [I-313, 3-((2-methoxy-5-methylphenyl)sulfonamido)-[1,1′-biphenyl]-4-carboxylic Acid] |
| 0.5 to 20 µM | O=C(O)c1ccc(-c2ccccc2)cc1NS(=O)(=O)c1cc(Cl)ccc1Cl [I-288, 3-((2,5-dichlorophenyl)sulfonamido)-[1,1′-biphenyl]-4-carboxylic acid] |
| > 20 µM | COc1ccc(-c2ccccc2)cc1NS(=O)(=O)c1cc(Cl)cc(Cl)c1OC [I-402, 3,5-dichloro-2-methoxy-N-(4-methoxy-[1,1′-biphenyl]-3-yl)benzenesulfonamide] |
| > 20 µM | NC(=O)c1ccc(F)c(S(=O)(=O)Nc2cc(-c3ccccc3)ccc2F)c1 [I-429, 4-fluoro-3-(N-(4-fluoro-[1,1′-biphenyl]-3-yl)sulfamoyl)benzamide] |
